Target: human GALK (Homo sapiens, UniProt P51570)
Test: GALK inhibition in vitro
Type: biochemical
Details: unpublished data

human GALK, sequence (P51570 whole entry): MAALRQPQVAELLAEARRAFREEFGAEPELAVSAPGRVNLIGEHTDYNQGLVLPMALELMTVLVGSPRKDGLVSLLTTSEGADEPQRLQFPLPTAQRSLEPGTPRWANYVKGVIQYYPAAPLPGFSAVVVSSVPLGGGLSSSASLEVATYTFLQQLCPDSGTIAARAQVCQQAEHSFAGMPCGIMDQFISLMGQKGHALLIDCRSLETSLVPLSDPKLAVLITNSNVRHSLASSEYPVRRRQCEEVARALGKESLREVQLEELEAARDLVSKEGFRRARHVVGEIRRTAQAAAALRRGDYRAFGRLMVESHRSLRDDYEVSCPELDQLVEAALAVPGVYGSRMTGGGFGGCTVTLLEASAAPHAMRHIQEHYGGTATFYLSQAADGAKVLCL

GALK inhibition (at low millimolar (mM) range) | GALK inhibition (galactose derivative) | SMILES
no inhibition |  | OC[C@H]1OC(O)[C@H](O)[C@@H](O)[C@@H]1O (stereo partly drawn) [glucose]
 | did not result in GALK inhibition | O=CC[C@@H](O)[C@@H](O)[C@H](O)CO [2-deoxygalactose]
no inhibition |  | O=C(CO)[C@@H](O)[C@H](O)[C@H](O)CO [fructose]

— publication PMC3253915 (Molecular Genetics and Metabolism, 2011)
